Assay results published in US4435591A, “Compound with analgesic, antiinflammatory and antipyretic activity, and pharmaceutical compositions therefrom” (Ausonia Farmaceutici s.r.l., priority 1982, dated 1984).

Columns and labels:
[1] = system: subplantar edema caused by carrageenan in rats; assay: Edema caused by carrageenan in rats (Winter et al); type: in vivo; details: oral, AFP 802 187 mg/Kg, ibuprofen 100 mg/Kg
Experimental: The anti-inflammatory activity has been investigated by a series of tests using edema caused by carrageenan and kaolin pleuritis caused by carrageenan and arthritis caused by an adjuvant.
The plyethysmographic observations of the edema have been carried out every hour for a period of 7 hours after the induction of the edema.

[2] = system: Pleuritis caused by carrageenan in rats; assay: Pleuritis caused by carrageenan in rats (Vinegar et al); type: in vivo; details: for Number of leucocytes × 1,000 / Number of leucocytes, % inhibition with respect to the controls: 100 mg/Kg oral
[3] = system: Arthritis caused by the adjuvant of Freund in rats; assay: Arthritis caused by the adjuvant in rats (Winter and Nuss); type: in vivo; details: 100 mg/Kg/die oral
Excerpt: For the evaluation for the efficiency of the substance the following parameters have been considered: diameter of articulations, volume of the hind paws, hematological and hematochemical examination, weight of the suprarenal glands and thymus.

[4] = system: Writhing caused by phenylquinone in mice; assay: Writhing caused by phenylquinone in mice (Siegmung et al); type: in vivo
Excerpt: The analgesic activity of AFP 802 has been studied by means of the writhing test with phenylquinone in mice and by means of the test of Randall and Selitto in rats.

[5] = system: Test of Randall and Selitto, in rats; assay: Test of Randall and Selitto in rats; type: in vivo; details: 100 mg/Kg oral
Experimental: The analgesic activity of AFP 802 has been studied by means of the writhing test with phenylquinone in mice and by means of the test of Randall and Selitto in rats. Test of Randall and Selitto in rats. This test was carried out according to the method of L. Randall and J. Selitto reported in Arch. Int. Pharmacodyn., 1957 III, 409. […] The variations of pressure tolerated without variation in pain have been determined each hour, for 5 consecutive hours and the results are reported in Table 10.

[6] = system: Hyperthermia caused by yeast; assay: Antipyretic activity, hyperthermia caused by yeast in rats (Boissier and Simon); type: in vivo
Excerpt: The experiment has been carried out in rats in which the body temperature has been increased by means of yeast by the method according to J. R. Boissier and P. Simon (Therapie, 1962, 17, 1225). […] It is, however, necessary to keep in mind the difference in molecular weight between the two substances under examination.

[7] = system: Edema caused by kaolin in rats; assay: Edema caused by kaolin in rats (Coulon et al); details: oral every 24 hours, 5 consecutive days, dose AFP 802 115, ibuprofen 60

For `CC(C)Cc1ccc(C(C)C(=O)O)cc1` (centres unmarked) [Ibuprofen, ibuprofen, reference compound], the “% inhibition vs control” value ([1]; area) was 65.0%, the “Area Absolute Value” [1] was 102.8 and the “Number of leucocytes × 1,000” value ([2]; 5 hours) was 4,499 × 1,000. The “Number of leucocytes, % inhibition with respect to the controls” value ([2]; 5 hours) was 73.60%, the “effect in pleuritis (in words)” value ([2]; 24 hours after the administration) was “practically inactive” and the “Number of leucocytes × 1,000” value ([2]; 24 hours) was 18,470 × 1,000. The “Number of leucocytes, % inhibition with respect to the controls” value ([2]; 24 hours) was 0.92%, the “ALBUMIN (%)” value [3] was 68.0 ± 2.0% and the “GLOBULIN (%) α1” value [3] was 8.8 ± 1.07%. The “GLOBULIN (%) α2” value [3] was 5.5 ± 0.34%, the “GLOBULIN (%) β1” value [3] was 13.9 ± 0.45% and the “GLOBULIN (%) β2” value [3] was 5.9 ± 0.43%. The “GLOBULIN (%) γ” value [3] was 1.9 ± 0.13%, the Hematocrit [3] was 45.4 ± 1.04 and the Leucocytes [3] was 7,946 ± 380.5 × mm^3. For the same molecule, the “Red Cells” value [3] was 5,265.300 ± 1.003 × mm^3, the VES [3] was 1.7 ± 0.9 and the “Σ Diameter D + S, Area” value ([3]; both paws, area under the curve of the increases) was 2,616.2. For the same molecule, the “Σ Diameter D + S, % inhibition” value ([3]; both paws) was 70.92%, the Suprarenal ([3]; weight) was 65.6 ± 3.4 mg and the Thymus ([3]; weight) was 375.0 ± 24.3 mg. The “% inhibition with respect to the control” value ([4]; 100 mg/Kg oral) was 78.6%, the “No. of Contorsions” value ([4]; 100 mg/Kg oral) was 4.5 and the “% inhibition with respect to the control” value ([4]; 200 mg/Kg oral) was 86.7%. The “No. of Contorsions” value ([4]; 200 mg/Kg oral) was 2.8, the “% INHIBITION WITH RESPECT TO THE CONTROL, I” value ([5]; area, inflamed paw) was 45.41% and the “% INHIBITION WITH RESPECT TO THE CONTROL, NI” value ([5]; area, not inflamed paw) was 65.35%. For the same molecule, the “AREA ABSOLUTE VALUE, I” value ([5]; inflamed paw, area of the increase of the pressure tolerated) was -58.6 ± 25.25, the “AREA ABSOLUTE VALUE, NI” value ([5]; not inflamed paw, area of the increase of the pressure tolerated) was -39.95 ± 33.48 and the “% inhibition with respect to control” value ([6]; 100 mg/Kg oral) was 121.24%. For the same molecule, the Rectal temperature ([6]; 1 hour after treatment, 100 mg/Kg oral) was 37.71 °C, the Rectal temperature ([6]; 2 hours after treatment, 100 mg/Kg oral) was 37.43 °C and the Rectal temperature ([6]; 3 hours after treatment, 100 mg/Kg oral) was 37.36 °C. The Rectal temperature ([6]; 4 hours after treatment, 100 mg/Kg oral) was 36.87 °C, the Rectal temperature ([6]; 5 hours after treatment, 100 mg/Kg oral) was 37.12 °C and the Rectal temperature ([6]; Basal, 100 mg/Kg oral group) was 38.34 °C. The “% inhibition with respect to the controls” value ([7]; area) was 38.24% and the “Area (area under the curve of the increase of the diameter of the articulations)” value [7] was 10799.5 mm^2.
